Experimental data published in patent publication US6143769A, “Phenylacetic acid benzylamides” (Karl Thomae GmbH, priority 1983, dated 2000).
Read-outs that look alike come from different tables or passages of the source.

What was measured:
[1] = system: blood glucose; assay: Test for hypoglycemic activity in fasted female rats (oral); assay type: in vivo; conditions: for change in vivo at 0.5 mg/kg / change in vivo at 1 mg/kg: Rattus norvegicus, po, read-out: Change in glucose content compared with control
Method: Blood samples were taken immediately before the administration of the test compound and 1, 2, 3 and 4 hours afterwards, in each case from the retroorbital Venous plexus. 50 μl of each sample were deproteinated with 0.5 ml of 0.33 N perchloric acid and centrifuged. The glucose in the supernatant fluid was measured using the hexokinase method with the aid of an analytical photometer. The statistical evaluation was made using the t-test according to Student with p=0.05 as the limit of significance.

[2] = system: blood sugar; assay: Blood sugar-lowering effect of the enantiomers in fasted female rats (oral); assay type: in vivo; conditions: 1.0 mg/kg p.o.
Method: The substances to be investigated were suspended in 1.5% methylcellulose immediately before the start of the test and administered into the oesophagus. […] Glucose was measured in the supernatant by the hexokinase method using an analytical photometer. The statistical evaluation was carried out using the Student's t-test with p=0.05 as the limit of significance. Table 1 which follows contains the statistically significant values as percentage deviations from the control: […]

[3] = clinical; conditions: human, plasma, 1 mg
Method: More specifically, the studies which follow were carried out on healthy male volunteers in whom the levels of glucose and active substance in the course of time were determined:
In the interests of more precise clarification, study 5 was carried out (randomised, open, crossover). […] 2 hours after administration a standard breakfast (B) was eaten, 5 hours after administration a standard lunch (L) was eaten and 10 hours after administration a standard dinner (D) was eaten. Blood samples were taken at different times. The glucose concentrations were measured in the plasma as in study 1. […] The plasma concentrations of AG-EE 624 ZW were calculated as the difference between the two concentrations found:

Compound	change in vivo at 0.5 mg/kg ([1]; 0.5 mg/kg, 1 h) [%]	change in vivo at 0.5 mg/kg ([1]; 0.5 mg/kg, 2 h) [%]	change in vivo at 0.5 mg/kg ([1]; 0.5 mg/kg, 3 h) [%]	change in vivo at 0.5 mg/kg ([1]; 0.5 mg/kg, 4 h) [%]	change in vivo at 1 mg/kg ([1]; 1 mg/kg, 1 h) [%]	change in vivo at 1 mg/kg ([1]; 1 mg/kg, 2 h) [%]	change in vivo at 1 mg/kg ([1]; 1 mg/kg, 3 h) [%]	change in vivo at 1 mg/kg ([1]; 1 mg/kg, 4 h) [%]	also measured
CCCC(NC(=O)Cc1ccc(C(=O)O)c(OCC)c1)c1ccccc1N1CCCCC1 (single isomer, unassigned; (+)) [E, (+)-2-ethoxy-4-[N-{1-(2-piperidino-phenyl)-1-butyl}-aminocarbonylmethyl]-benzoic acid]	-40	-39	-36	-36					
CCOc1cc(CC(=O)N[C@H](CC(C)C)c2ccccc2N2CCCCC2)ccc1C(=O)O [AG-EE 624 ZW, (R)(-)-2-ethoxy-4-[N-[1-(2-piperidino-phenyl)-3-methyl-1-butyl]aminocarbonylmethyl]-benzoic acid]									Glucose, percentage deviation from control ([2]; 1 h): n.s.; Glucose, percentage deviation from control ([2]; 2 h): n.s.; Glucose, percentage deviation from control ([2]; 3 h): n.s.; Glucose, percentage deviation from control ([2]; 4 h): n.s.; MRT ([3]; iv): 3.3 ± 1.7 h; clearance ([3]; iv): 75 ± 34 mL/min; bioavailability ([3]; po): 83 ± 32%
CCCC(NC(=O)Cc1ccc(C(=O)O)c(OCC)c1)c1ccccc1N1CCCCC1 (stereo not drawn) [B, 2-ethoxy-4-[N-{1-(2-piperidino-phenyl)-1-butyl}-aminocarbonylmethyl]-benzoic acid]	-43	-36	-34	-35	-38	-49	-38	-33	
COc1cc(CC(=O)NC(c2ccccc2)c2ccccc2N2CCCCC2)ccc1C(=O)O (stereo not drawn) [C, 2-methoxy-4-[N-(α-phenyl-2-piperidino-benzyl)-aminocarbonymethyl]-benzoic acid]					-38	-41	-38	-34	
COc1cc(CC(=O)NC(C)c2ccccc2N2CCCCC2)ccc1C(=O)O (stereo not drawn) [Compound A, 2-methoxy-4-[N-{1-(2-piperidino-phenyl)-1-ethyl}-aminocarbonylmethyl]-benzoic acid]					-37	-46	-23	-14	
CCOc1cc(CC(=O)NC(C)c2ccccc2N2CCCCC2)ccc1C(=O)O (stereo not drawn) [F, 2-ethoxy-4-[N-{1-(2-piperidino-phenyl)-1-ethyl}-aminocarbonylmethyl]-benzoic acid]					-44	-44	-40	-30	
CCCC(NC(=O)Cc1ccc(C(=O)O)c(OCC)c1)c1ccccc1N1CCCC1 (stereo not drawn) [G, sodium 2-ethoxy-4-[N-{1-(2-pyrrolidino-phenyl)-1-butyl}-aminocarbonylmethyl]-benzoate]	-40	-33	-30	-17					
CCCC(NC(=O)Cc1ccc(C(=O)O)c(OCC)c1)c1ccccc1N1CCCCCC1 (stereo not drawn) [H, 2-ethoxy-4-[N-{1-(2-hexamethyleneimino-phenyl)-1-butyl}-aminocarbonylmethyl]-benzoic acid]	-42	-34	-18						Change in glucose content compared with control ([1]; 0.5 mg/kg, 4 h): n.s.
CCCC(NC(=O)Cc1ccc(C(=O)O)c(OC)c1)c1ccccc1N1CCCCC1 (stereo not drawn) [I, 2-methoxy-4-[N-{1-(2-piperidino-phenyl)-1-butyl}-aminocarbonylmethyl]-benzoic acid]	-42	-39	-37	-30					
CCCOc1cc(CC(=O)NC(CCC)c2ccccc2N2CCCCC2)ccc1C(=O)O (stereo not drawn) [K, 2-n-propoxy-4-[N-{1-(2-piperidino-phenyl)-1-butyl}-aminocarbonylmethyl]-benzoic acid]	-34	-36	-24						Change in glucose content compared with control ([1]; 0.5 mg/kg, 4 h): n.s.
CCCCC(NC(=O)Cc1ccc(C(=O)O)c(OCC)c1)c1ccccc1N1CCCCC1 (stereo not drawn) [L, 2-ethoxy-4-[N-{1-(2-piperidino-phenyl)-1-pentyl}-aminocarbonylmethyl]-benzoic acid]	-42	-45	-38	-39					
CCOc1cc(CC(=O)NC(c2ccccc2)c2ccc(C)cc2N2CCCCC2)ccc1C(=O)O (stereo not drawn) [M, 2-ethoxy-4-[N-(4-methyl-α-phenyl1-2-piperidino-benzyl)-aminocarbonylmethyl]-benzoic acid]					-44	-41	-35	-27	
CCCC(NC(=O)Cc1ccc(CC#N)c(OCC)c1)c1ccccc1N1CCCCC1 (stereo not drawn) [O, [2-ethoxy-4-[N-(1-(2-piperidino-phenyl)-1-butyl)-aminocarbonylmethyl]-phenyl]-acetonitrile]					-29	-37	-35	-34	
CCOc1cc(CC(=O)NC(c2ccccc2)c2ccccc2N2CCCCC2)ccc1CC#N (stereo not drawn) [P, [2-ethoxy-4-[N-(α-phenyl-2-piperidino-benzyl)-aminocarbonylmethyl]-phenyl]acetonitrile]					-12	-10	-14	-14	
CCOc1cc(CC(=O)NC(CC2CCCCC2)c2ccccc2N2CCCCC2)ccc1C(=O)O (stereo not drawn) [Q, 2-ethoxy-4-[N-(α-cyclohexylmethyl-2-piperidino-benzyl)-aminocarbonyl-methyl]-benzoic acid]	-22	-47	-45	-45					
CCOC(=O)C(NC(=O)Cc1ccc(C(=O)O)c(OCC)c1)c1ccccc1N1CCCCC1 (stereo not drawn) [R, 2-ethoxy-4-[N-(α-ethoxycarbonyl-2-piperidino-benzyl)-aminocarbonylmethyl]-benzoic acid]					-33	-17			Change in glucose content compared with control ([1]; 1 mg/kg, 3 h): n.s.; Change in glucose content compared with control ([1]; 1 mg/kg, 4 h): n.s.
CCOc1cc(CC(=O)NC(C(=O)OC)c2ccccc2N2CCCCC2)ccc1C(=O)O (stereo not drawn) [S, 2-ethoxy-4-[N-(α-methoxycarbonyl-2-piperidino-benzyl)-aminocarbonylmethyl]-benzoic acid]					-42	-35	-28	-18	
CCOc1cc(CC(=O)NC(C(=O)OC(C)C)c2ccccc2N2CCCCC2)ccc1C(=O)O (stereo not drawn) [T, 2-ethoxy-4-[N-(α-isopropoxycarbonyl-2-piperidino-benzyl)-aminocarbonylmethyl]benzoic acid]					-36	-21	-18		Change in glucose content compared with control ([1]; 1 mg/kg, 4 h): n.s.
CCOc1cc(CC(=O)NC(CC2CC2)c2ccccc2N2CCCCC2)ccc1C(=O)O (stereo not drawn) [U, 2-ethoxy-4-[N-(α-cyclopropylmethyl-2-piperidino-benzyl)-aminocarbonylmethyl]benzoic acid]	-45	-45	-36	-36					
CCOc1cc(CC(=O)NC(CC2CCCO2)c2ccccc2N2CCCCC2)ccc1C(=O)O (stereo not drawn) [V, 2-ethoxy-4-[N-(α-(tetrahydrofuran-2-yl-methyl)-2-piperidino-benzyl)-aminocarbonylmethyl]benzoic acid]	-46	-25	-13	-10					
C=CCC(NC(=O)Cc1ccc(C(=O)O)c(OCC)c1)c1ccccc1N1CCCCC1 (stereo not drawn) [W, 2-ethoxy-4-[N-(1-(2-piperidino-phenyl)-3-buten-1-yl)-aminocarbonylmethyl]benzoic acid]	-42	-39	-28	-35					
C=C(C)CC(NC(=O)Cc1ccc(C(=O)O)c(OCC)c1)c1ccccc1N1CCCCC1 (stereo not drawn) [X, 2-ethoxy-4-[N-(1-(2-piperidino-phenyl)-3-methyl-3-buten-1-yl)-aminocarbonylmethyl]benzoic acid]	-44	-41	-31	-28					
C#CCC(NC(=O)Cc1ccc(C(=O)O)c(OCC)c1)c1ccccc1N1CCCCC1 (stereo not drawn) [Y, 2-ethoxy-4-[N-(1-(2-piperidino-phenyl)-3-butyn-1-yl)-aminocarbonylmethyl]benzoic acid]	-33	-18	-11						Change in glucose content compared with control ([1]; 0.5 mg/kg, 4 h): n.s.
